Measurements reported in ChEMBL document CHEMBL1201862, “PubChem BioAssay data set” (2004).
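Briefly, cells in 96-well plates were exposed to five compound concentrations for 48 h, and endpoints were estimated by linear interpolation. GI50 = concentration required for 50% inhibition of growth.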 The source made the active and inactive calls. No stated cut-off is given here; in the data, active = GI50 up to about 1.1 µM and inactive = higher.

Legend:
Test in all cases: NCI-60 cell line screen, 48 h
786-0 = tested on: 786-0
A498 = tested on: A498
A549 = tested on: A549
ACHN = tested on: ACHN
CAKI-1 = tested on: CAKI-1
CCRF-CEM = tested on: CCRF-CEM
COLO 205 = tested on: COLO 205
DMS-114 = tested on: DMS-114
DMS-273 = tested on: DMS-273
HCC 2998 = tested on: HCC 2998
HCT-116 = tested on: HCT-116
HCT-15 = tested on: HCT-15
HL-60 = tested on: HL-60
HOP-18 = tested on: HOP-18
HOP-62 = tested on: HOP-62
HOP-92 = tested on: HOP-92
HT-29 = tested on: HT-29
IGROV-1 = tested on: IGROV-1
K562 = tested on: K562
KM-20L2 = tested on: KM-20L2
LOX IMVI = tested on: LOX IMVI
LXFL 529 = tested on: LXFL 529
M14 = tested on: M14
M19-MEL = tested on: M19-MEL
MOLT-4 = tested on: MOLT-4
Malme-3M = tested on: Malme-3M
NCI-H226 = tested on: NCI-H226
NCI-H23 = tested on: NCI-H23
NCI-H460 = tested on: NCI-H460
OVCAR-3 = tested on: OVCAR-3
OVCAR-4 = tested on: OVCAR-4
OVCAR-5 = tested on: OVCAR-5
OVCAR-8 = tested on: OVCAR-8
RPMI-8226 = tested on: RPMI-8226
RXF 631 = tested on: RXF 631
SF-268 = tested on: SF-268
SF-295 = tested on: SF-295
SK-MEL-28 = tested on: SK-MEL-28
SK-MEL-5 = tested on: SK-MEL-5
SK-OV-3 = tested on: SK-OV-3
SN12C = tested on: SN12C
SNB-19 = tested on: SNB-19
SR = tested on: SR
SW-620 = tested on: SW-620
TK-10 = tested on: TK-10
U-251 = tested on: U-251
UACC-257 = tested on: UACC-257
UACC-62 = tested on: UACC-62
UO-31 = tested on: UO-31
DLD-1 = tested on: DLD-1
EKVX = tested on: EKVX
KM12 = tested on: KM12
NCI-H522 = tested on: NCI-H522
RXF 393 = tested on: RXF 393
SF-539 = tested on: SF-539
SK-MEL-2 = tested on: SK-MEL-2
SNB-75 = tested on: SNB-75
SNB-78 = tested on: SNB-78

CCOC(=O)C1C2CCC(C2)C1(CCl)C(=O)OCC (stereo not drawn)
GI50 (786-0): > 100 µM (inactive) | GI50 (A498): > 100 µM (inactive) | GI50 (A549): > 100 µM (inactive) | GI50 (ACHN): > 100 µM (inactive) | GI50 (CAKI-1): > 100 µM (inactive) | GI50 (CCRF-CEM): > 100 µM (inactive) | GI50 (COLO 205): > 100 µM (inactive) | GI50 (DMS-114): > 100 µM (inactive) | GI50 (DMS-273): > 100 µM (inactive) | GI50 (HCC 2998): > 100 µM (inactive) | GI50 (HCT-116): > 100 µM (inactive) | GI50 (HCT-15): > 100 µM | GI50 (HL-60): > 100 µM (inactive) | GI50 (HOP-18): > 100 µM (inactive) | GI50 (HOP-62): > 100 µM (inactive) | GI50 (HOP-92): 36.6 µM (inactive) | GI50 (HT-29): > 100 µM (inactive) | GI50 (IGROV-1): > 100 µM (inactive) | GI50 (K562): > 100 µM (inactive) | GI50 (KM-20L2): > 100 µM (inactive) | GI50 (LOX IMVI): > 100 µM (inactive) | GI50 (LXFL 529): > 100 µM (inactive) | GI50 (M14): > 100 µM (inactive) | GI50 (M19-MEL): > 100 µM (inactive) | GI50 (MOLT-4): > 100 µM (inactive) | GI50 (Malme-3M): > 100 µM (inactive) | GI50 (NCI-H226): > 100 µM (inactive) | GI50 (NCI-H23): > 100 µM (inactive) | GI50 (NCI-H460): > 100 µM (inactive) | GI50 (OVCAR-3): > 100 µM (inactive) | GI50 (OVCAR-4): > 100 µM (inactive) | GI50 (OVCAR-5): > 100 µM (inactive) | GI50 (OVCAR-8): > 100 µM (inactive) | GI50 (RPMI-8226): > 100 µM (inactive) | GI50 (RXF 631): > 100 µM (inactive) | GI50 (SF-268): > 100 µM (inactive) | GI50 (SF-295): > 100 µM (inactive) | GI50 (SK-MEL-28): > 100 µM (inactive) | GI50 (SK-MEL-5): > 100 µM (inactive) | GI50 (SK-OV-3): > 100 µM (inactive) | GI50 (SN12C): > 100 µM (inactive) | GI50 (SNB-19): > 100 µM (inactive) | GI50 (SR): > 100 µM (inactive) | GI50 (SW-620): > 100 µM (inactive) | GI50 (TK-10): > 100 µM (inactive) | GI50 (U-251): > 100 µM (inactive) | GI50 (UACC-257): > 100 µM (inactive) | GI50 (UACC-62): > 100 µM (inactive) | GI50 (UO-31): > 100 µM (inactive)

CC1(Cc2ccccc2)NC(=S)NC1=O (stereo not drawn)
GI50 (786-0): > 100 µM (inactive) | GI50 (A549): > 100 µM (inactive) | GI50 (ACHN): > 100 µM (inactive) | GI50 (CAKI-1): > 100 µM (inactive) | GI50 (COLO 205): > 100 µM (inactive) | GI50 (DLD-1): > 100 µM (inactive) | GI50 (DMS-114): > 100 µM (inactive) | GI50 (DMS-273): > 100 µM (inactive) | GI50 (EKVX): > 100 µM (inactive) | GI50 (HCC 2998): > 100 µM (inactive) | GI50 (HL-60): > 100 µM (inactive) | GI50 (HOP-18): 0.143 µM (active) | GI50 (HOP-62): > 100 µM (inactive) | GI50 (HOP-92): 3.03 µM (inactive) | GI50 (HT-29): > 100 µM (inactive) | GI50 (KM-20L2): > 100 µM (inactive) | GI50 (KM12): > 100 µM (inactive) | GI50 (LOX IMVI): > 100 µM (inactive) | GI50 (LXFL 529): > 100 µM (inactive) | GI50 (M14): > 100 µM (inactive) | GI50 (M19-MEL): > 100 µM (inactive) | GI50 (Malme-3M): > 100 µM (inactive) | GI50 (NCI-H226): > 100 µM (inactive) | GI50 (NCI-H23): > 100 µM (inactive) | GI50 (NCI-H460): > 100 µM (inactive) | GI50 (NCI-H522): > 100 µM (inactive) | GI50 (OVCAR-5): > 100 µM (inactive) | GI50 (OVCAR-8): > 100 µM (inactive) | GI50 (RXF 393): > 100 µM (inactive) | GI50 (RXF 631): > 100 µM (inactive) | GI50 (SF-268): > 100 µM (inactive) | GI50 (SF-295): > 100 µM (inactive) | GI50 (SF-539): > 100 µM (inactive) | GI50 (SK-MEL-28): > 100 µM (inactive) | GI50 (SK-MEL-2): > 100 µM (inactive) | GI50 (SN12C): > 100 µM (inactive) | GI50 (SNB-19): > 100 µM (inactive) | GI50 (SNB-75): > 100 µM (inactive) | GI50 (SNB-78): > 100 µM (inactive) | GI50 (SR): > 100 µM (inactive) | GI50 (SW-620): > 100 µM (inactive) | GI50 (TK-10): > 100 µM (inactive) | GI50 (U-251): > 100 µM (inactive) | GI50 (UACC-257): > 100 µM (inactive) | GI50 (UO-31): > 100 µM (inactive)

Cc1cc(Cl)ccc1NC(=O)C(=O)C(C(=O)c1ccc2ccccc2c1)C1OC(=O)c2ccccc21 (stereo not drawn)
GI50 (786-0): 8.91 µM (inactive) | GI50 (A498): 7.48 µM (inactive) | GI50 (A549): 21.3 µM (inactive) | GI50 (ACHN): 23.2 µM (inactive) | GI50 (CAKI-1): 11.6 µM (inactive) | GI50 (CCRF-CEM): 1.11 µM (active) | GI50 (COLO 205): 13.2 µM (inactive) | GI50 (DLD-1): 14.3 µM (inactive) | GI50 (DMS-114): 6.15 µM (inactive) | GI50 (DMS-273): 12.4 µM (inactive) | GI50 (EKVX): 29.2 µM (inactive) | GI50 (HCC 2998): 10.2 µM (inactive) | GI50 (HCT-116): 9.4 µM (inactive) | GI50 (HCT-15): 18.7 µM | GI50 (HOP-18): 0.544 µM (active) | GI50 (HOP-62): 10.5 µM (inactive) | GI50 (HOP-92): 14.3 µM (inactive) | GI50 (HT-29): 28.4 µM (inactive) | GI50 (IGROV-1): 20.8 µM (inactive) | GI50 (K562): 8.61 µM (inactive) | GI50 (KM-20L2): 24 µM (inactive) | GI50 (KM12): 17 µM (inactive) | GI50 (LOX IMVI): 13.2 µM (inactive) | GI50 (LXFL 529): 6.47 µM (inactive) | GI50 (M14): 16 µM (inactive) | GI50 (M19-MEL): 10.1 µM (inactive) | GI50 (Malme-3M): 10 µM (inactive) | GI50 (NCI-H226): 2.3 µM (inactive) | GI50 (NCI-H23): 6.73 µM (inactive) | GI50 (NCI-H460): 6.93 µM (inactive) | GI50 (NCI-H522): 7.06 µM (inactive) | GI50 (OVCAR-3): 9.98 µM (inactive) | GI50 (OVCAR-4): 7.6 µM (inactive) | GI50 (OVCAR-5): 18.6 µM (inactive) | GI50 (OVCAR-8): 14.1 µM (inactive) | GI50 (RPMI-8226): 3.1 µM (inactive) | GI50 (RXF 393): 1.83 µM (inactive) | GI50 (RXF 631): 7.89 µM (inactive) | GI50 (SF-268): 4.08 µM (inactive) | GI50 (SF-539): 4.48 µM (inactive) | GI50 (SK-MEL-28): 9.79 µM (inactive) | GI50 (SK-MEL-2): 12.8 µM (inactive) | GI50 (SK-MEL-5): 12.7 µM (inactive) | GI50 (SK-OV-3): 15.7 µM (inactive) | GI50 (SN12C): 15.7 µM (inactive) | GI50 (SNB-19): 3.87 µM (inactive) | GI50 (SNB-75): 10.1 µM (inactive) | GI50 (SNB-78): 10.3 µM (inactive) | GI50 (SW-620): 7.87 µM (inactive) | GI50 (TK-10): > 10 µM (inactive) | GI50 (U-251): 4.95 µM (inactive) | GI50 (UACC-257): 16.1 µM (inactive) | GI50 (UACC-62): 8.67 µM (inactive) | GI50 (UO-31): 12.9 µM (inactive)
